Values of other authors, collected in patent EP1398318A1, “Process for conducting chemical reactions in a liquid phase in the presence of a catalyst and a 1,3-substituted imidazolium salt” (BASF AKTIENGESELLSCHAFT, priority 2002, dated 2004).

Target: menschlichen Myeloperoxidase (Homo sapiens, UniProt P05164)
Conditions: competitive with hydrogen peroxide at the active centre

menschlichen Myeloperoxidase, sequence (P05164 279-745 limits assumed): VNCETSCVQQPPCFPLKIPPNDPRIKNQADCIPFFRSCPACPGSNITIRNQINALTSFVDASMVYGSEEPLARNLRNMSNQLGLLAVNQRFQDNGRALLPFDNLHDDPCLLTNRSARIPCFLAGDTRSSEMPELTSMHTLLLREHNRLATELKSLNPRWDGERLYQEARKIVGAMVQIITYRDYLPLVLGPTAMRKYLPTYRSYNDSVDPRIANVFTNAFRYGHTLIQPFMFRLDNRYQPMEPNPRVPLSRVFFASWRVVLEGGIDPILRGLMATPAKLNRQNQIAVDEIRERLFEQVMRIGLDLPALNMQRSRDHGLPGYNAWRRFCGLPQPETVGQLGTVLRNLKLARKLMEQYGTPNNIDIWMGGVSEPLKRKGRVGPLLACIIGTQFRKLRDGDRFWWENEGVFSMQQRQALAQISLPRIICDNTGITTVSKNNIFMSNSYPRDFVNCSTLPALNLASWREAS
menschlichen Myeloperoxidase, sequence (P05164 165-278 limits assumed): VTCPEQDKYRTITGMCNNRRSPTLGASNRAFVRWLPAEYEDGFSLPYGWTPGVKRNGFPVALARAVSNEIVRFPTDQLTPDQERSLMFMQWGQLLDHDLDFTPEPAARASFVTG

Cl [Chlorid]
bindet kompetitiv zu Wasserstoffperoxid am aktiven Zentrum des Enzyms: inhibierend
